Assay results published in patent publication US20070098800A1, “Therapeutic compositions” (priority 2002, published 2007).

Columns and labels:
[1] = test system: experimental model of arthritis created by injecting ovalbumin into the knees of rabbits; experiment: Ovalbumin-induced arthritis (chronic synovitis) in rabbit knees: joint swelling, ovalbumin antibody titers, histological joint damage; assay type: in vivo; details: compared to vehicle controls, during the 3-week period (Example 1)
Method: (§1) At 3-day intervals over a 3-week period, joint swelling (circumference) is assessed, synovial fluid samples (25 μl) are collected for analysis of salicylate and betamethasone concentrations, and venous blood samples (0.5 ml) are collected for analysis of salicylate and betamethasone serum concentrations and ovalbumin antibody titers. At the end of 3 weeks the animals are sacrificed for histological assessment of joint damage.
as §1, with “(circumference) was” for “(circumference) is”, “μl) were” for “μl) are”, “and lidocaine” for “and betamethasone”, “ml) were” for “ml) are”, “animals were” for “animals are”
as §1, with “morphine” for “betamethasone”, “damage. […]” for “damage.”

[2] = Synovial fluid and serum drug concentrations after single i.a. injection in arthritic rabbits; details: rabbit, single 0.1 ml i.a. injection
Method: as §1
as §1, with “(circumference) was” for “(circumference) is”, “μl) were” for “μl) are”, “and lidocaine” for “and betamethasone”, “ml) were” for “ml) are”, “animals were” for “animals are”
as §1, with “morphine” for “betamethasone”
as §1, with “μl) were” for “μl) are”, “of salicylate, lidocaine,” for “of salicylate”, “and morphine” for “and betamethasone”

[3] = sampled at 3-day intervals over 3 weeks

| Compound | joint swelling [1] | serum ovalbumin antibody titers [1] | betamethasone levels (synovial fluid and serum) ([2]; after the early time points) | betamethasone levels in serum ([2]; early time points) | betamethasone levels in synovial fluid ([2]; early time points) | morphine serum levels [2, 3] | morphine synovial fluid levels [2, 3] |
| --- | --- | --- | --- | --- | --- | --- | --- |
| C[C@H]1C[C@H]2[C@@H]3CCC4=CC(=O)C=C[C@]4(C)[C@@]3(F)[C@@H](O)C[C@]2(C)[C@@]1(O)C(=O)COP(=O)([O-])[O-].[Na+].[Na+] [betamethasone, betamethasone sodium phosphate] | significantly reduced | significantly reduced | undetectable | low | low | – | – |
| CN1CC[C@]23c4c5ccc(O)c4O[C@H]2[C@@H](O)C=C[C@H]3[C@H]1C5.O=S(=O)(O)O [morphine, morphine sulfate] | – | – | – | – | – | undetectable | undetectable |
